In article PMC7961786, “Magic Peptide: Unique Properties of the LRR11 Peptide in the Activation of Leukotriene Synthesis in Human Neutrophils” (International Journal of Molecular Sciences, 2021):
Oligonucleotides are written 5' to 3', each unit as a sugar letter and its base; * is a phosphorothioate linkage, no mark a phosphodiester; rarer units and linkages stand in square brackets, end groups in braces. Plain capitals give the bases only. d = 2'-deoxy (DNA)

Columns and labels:
[1] = test system: human neutrophils (PMNLs); test: Binding and uptake of FAM-labeled ODNs by neutrophils (flow cytometry); format: cell-based; settings: 0.15 µM FPS-ZM1, 15 min, then 1 µM FAM-ODN 20 min; n = 3; Figure 7
Method: Figure 6 The LRR11 peptide affects the binding and uptake of ODNs by neutrophilic granulocytes. PMNLs (1 × 10^6/mL) in HBSS/HEPES were incubated for 20 min at 37 °C in 5% CO2 with 1 µM FAM-labeled ODN, supplemented or not with 1 µM LRR11 peptide. Both the total ODN accumulation (red) and its intracellular constituent (black) were analyzed by flow cytometry. Surface fluorescence was quenched by trypan blue (TB) solution. Values represent the means ± SEM of FAM fluorescence intensities (RFU, relative fluorescence units) (n = 8). ** p < 0.01; *** p < 0.005, **** p < 0.001 for specified data pairs, as indicated by two-way ANOVA followed by Tukey’s multiple comparison test. Mean fluorescence intensities of unstained PMNLs were 62 ± 12 and 39 ± 5.6 without or after TB quenching, respectively.
Figure 7 RAGE antagonist effect on oligonucleotide penetration into neutrophil cells. […] Both total oligonucleotide accumulation (A) and its intracellular constituent (B) were analyzed by flow cytometry. The surface fluorescence was quenched by trypan blue solution. Values represent the means ± SEM of FAM fluorescence intensities (RFU) (n = 3). * p < 0.05; […]; *** p < 0.005 for the pair of data specified, as indicated by two-way ANOVA followed by Tukey’s multiple comparison test. Fluorescence intensities of unstained controls were 62 ± 14 and 49 ± 6 without, or after TB quenching, respectively. […]

[2] = test system: human neutrophils (PMNLs), 5-LOX product synthesis; test: 5-LOX metabolite synthesis in human neutrophils stimulated with opsonized S. typhimurium (HPLC); format: cell-based
Method: Figure 1 Effects of LRR11 and ODNs on the formation of LTB4 (A,B) and the sum of 5-LOX metabolites (ω-OH-LTB4, LTB4 and its isomers, and 5-HETE) (C) in human PMNLs. PMNLs (2 × 10^7) were incubated for 15 min at 37 °C without (black bars) or with 1 μM LRR11 (A, LRR11_first); then ODNs and LRR11 or LPS were added; various ways of adding ODN and LRR11 peptide are indicated. In control samples, Hanks’ solution was added instead of ODNs. After 20 min, 0.5 × 10^9 S. typhimurium bacterial cells were added for a further 15 min. The 5-LOX products were determined using HPLC. Values indicate mean ± SEM of five independent experiments performed in duplicate. * p < 0.05, ** p < 0.01, *** p < 0.005, compared with the control. # p < 0.05, ## p < 0.01 for pairs of data compared as indicated by two-way ANOVA followed by Tukey’s multiple comparison test.
Figure 3 Synthesis of the 5-LOX metabolites in PMNLs exposed to opsonized S. typhimurium bacteria in the presence of the RAGE antagonist FPS-ZM1. PMNLs (2 × 10^7) were incubated for 15 min at 37 °C without additives or with 0.15 µM FPS-ZM1, for the next 20 min the mixture was incubated with 1 µM ODNs without (black bars) or with 1 µM LRR11 (gray bars) before adding 5 × 10^8 S. typhimurium for 15 min. In control samples, Hanks’ solution was added instead of ODNs. The 5-LOX products were determined using HPLC. Graphical data are presented for LTB4 (A) or the sum of LTB4 and its isomers, ω-OH-LTB4 and 5-HETE, designed as Σ5LOX products (B).
Human neutrophils were isolated from freshly taken citrate-anticoagulated peripheral blood from healthy individuals using standard methods. Leukocyte-rich plasma was prepared by sedimentation of erythrocytes with 3% dextran T-500 at room temperature. For purification of granulocytes, centrifugation through Ficoll-Paque (density 1.077 g/mL) was used, followed by hypotonic lysis of the remaining erythrocytes. […] All methods were performed in accordance with the relevant instructions and regulations of the Ministry of Health of the Russian Federation and local legislation.
Bacteria (S. typhimurium IE 147 strain) obtained from the Collection of Gamaleya National Research Center of Epidemiology and Microbiology (Moscow, Russia) were grown in Luria–Bertani broth to a concentration of 1 × 10^9 colony-forming units (CFU)/mL. The bacteria were collected by centrifugation at 2000 g and opsonized immediately before the experiment for 30 min in 20% (v/v) fresh serum from the same donor whose blood was used to isolate neutrophils. Repeated centrifugation in Dulbecco’s solution was used to wash the bacteria.
The cell suspension (2 × 10^7 PMNLs in HBSS/HEPES, reaction volume of 6 mL) was cultured for 15 min in an incubator at 37 °C, 5% CO2. Then 1.0 µM ODN with or without 1.0 µM LRR11, or 2 µg/mL LPS, was added as indicated. After 20 min, the cells were stimulated with S. typhimurium (the ratio of bacteria to PMNLs was approximately 20:1) for the next 15 min [3]. The synthesis of 5-LOX metabolites was stopped by adding an equal volume of methanol at −20 °C with prostaglandin B2 as an internal standard. Samples were stored at −20 °C. The denatured cell suspension was centrifuged, and supernatants designated as water/methanol extracts.
(§1) To purify the water/methanol extracts, solid-phase extraction was used on Sep-Pak C18 cartridges (500 mg; Macherey-Nagel, Dueren, Germany), which were conditioned first with methanol, and then with water. Major 5-LOX metabolites were identified by comparing retention times with those of known compounds, as previously described.
Table S1. Effect of Chloroquine on 5-LOX product formation in PMNLs after ODN priming followed by the addition
of opsonized S. typhimurium bacteria.

[3] = test system: PMNLs, 5-LOX product formation; test: 5-LOX product formation in PMNLs stimulated by calcium ionophore A23187; format: cell-based, human
Method: Human neutrophils were isolated from freshly taken citrate-anticoagulated peripheral blood from healthy individuals using standard methods. Leukocyte-rich plasma was prepared by sedimentation of erythrocytes with 3% dextran T-500 at room temperature. For purification of granulocytes, centrifugation through Ficoll-Paque (density 1.077 g/mL) was used, followed by hypotonic lysis of the remaining erythrocytes. PMNLs were washed twice in PBS, resuspended at 10^7 cells/mL (96–97% purity, 98–99% viability) in Dulbecco’s PBS containing 1 mg/mL glucose (no CaCl2) and stored at room temperature. All methods were performed in accordance with the relevant instructions and regulations of the Ministry of Health of the Russian Federation and local legislation.
as §1

[4] = test system: telomeric G-quadruplex DNA; settings: ref [42]; cited from earlier work
Description: (§2) LRR11, like LL-37, belongs to the group of cationic antimicrobial peptides, which are characterized by high content of hydrophobic residues (~40%) and overall positive charge due to the increased content of Arg and Lys residues. They block many functions of LPS [39, 40], interact with intracellular DNA, and mediate DNA uptake and transport in mammalian cells.

cells, CpG-ODN delivery = settings: ref [43],[44]; cited from earlier work
Description: as §2

[5] = test system: vascular smooth muscle cells; settings: ref [56]; cited from earlier work
Description: RAGE is shown to bind molecules, known as damage-associated molecular patterns (DAMPs), released by cells that die or are under conditions of inflammation.

PMNLs = test: Phagocytosis of FITC-labeled S. typhimurium by neutrophils; format: cell-based, human; settings: 1 µM ODN +/- 1 µM LRR11, FITC-labeled S. typhimurium 20 min; n = 3; Figure S2b
Method: Figure S2b. Influence of LRR11 and ODNs on phagocytic activity of neutrophils. PMNLs supplemented with 1 µM ODN +/- 1 µM LRR11, except for control samples containing HBSS/HEPES instead of ODNs, were incubated for 20 min in Eppendorf tubes at 37 °C in 5% CO2 with continuous stirring. FITC-labeled S. typhimurium were then added for next 20 min, followed by FACS analysis (excitation: 488 nm, emission: 525 nm). Both the relative amounts of PMNLs involved in phagocytosis (A, B) and the fluorescence intensities, reflecting the average number of bacteria captured per cell (C, D), were estimated. To distinguish between internalized and surface-bound bacterial cells, trypan blue at a working concentration of 1 mg/ml, was used to quench the surface FITC fluorescence caused by the attached bacteria. Thus, each series of samples was duplicated to obtain results both without (A, C) and with (B, D) TB quenching, which corresponds to the total interaction and uptake of bacteria. Averaged flow cytometry data are presented, including means ± SEM for the percentages of FITC-positive (i.e., phagocytic) cells (A, B), and mean ± SEM for fluorescence intensities of FITC-positive subpopulations (C, D) (n=3; * p < 0.05; ** p < 0.01 in comparison with corresponding controls, ns – non significant, as indicated by two-way ANOVA followed by Dunnett’s or Tukey’s multiple comparison tests). […]

[6] = test system: human neutrophils (PMNLs), 5-LOX product synthesis; design: method as in PMID 27036535; settings: ref [3]; cited from earlier work
TLR9 signaling = settings: ref [25]; cited from earlier work

O=C(c1ccc(Cl)cc1)N(Cc1ccccc1)C1CCCCC1 [FPS-ZM1]
effect of RAGE antagonist on ODN internalization [1]: suppressed ODN internalization | effect of FPS-ZM1 on 5-LOX product formation stimulated by bacterial phagocytosis ([2]; 0.15 µM FPS-ZM1, S. typhimurium, Figure 3): inhibited the 5-LOX product formation stimulated by bacterial phagocytosis | effect of FPS-ZM1 on ODN effects on leukotriene synthesis ([2]; 150 nM FPS-ZM1, 15 min before 1 µM ODNs, Figure 3, four independent experiments): strongly reduce the effects of ODNs on leukotriene synthesis | Σ 5-LOX metabolites ([3]; 150 nM FPS-ZM1 30 min at 37 °C, then 1 µM A23187 10 min, mean ± SEM, three independent experiments): 438 ± 42 ng/10^7 PMNLs | effect of FPS-ZM1 on A23187-induced leukotriene synthesis ([3]; 150 nM FPS-ZM1, 1 µM A23187): did not affect the leukotriene synthesis induced by the calcium ionophore A23187

LL-37
complex with telomeric G-quadruplex DNA [4]: forms a complex with telomeric G-quadruplex DNA | delivery of bacterial CpG-ODNs to cells (cells, CpG-ODN delivery): promotes the rapid delivery of bacterial CpG-ODNs to cells

CCCCC/C=C\C[C@@H](O)/C=C/C=C/C=C\[C@@H](O)CCCC(=O)O [LTB4, leukotriene B4, reference compound]
RAGE expression / LTB4 production in vascular smooth muscle cells [5]: increases RAGE expression in proliferating human vascular smooth muscle cells

5′-ggTTAGGGTTAGGGTTAGGGTTAGGGggggg-3′ (DNA dG*dG*dTdTdAdGdGdGdTdTdAdGdGdGdTdTdAdGdGdGdTdTdAdGdGdGdG*dG*dG*dG*dG) [G-rich ODN, G-rich ODN containing human telomeric tandem repeats]
effect on bacteria engulfment (PMNLs): only G-rich ODN facilitated the bacteria engulfment | effect on 5-LOX activity / leukotriene synthesis ([2]; ODN alone, 1 µM, 20 min, then opsonized S. typhimurium 15 min, Figure 1, five independent experiments in duplicate): increased leukotriene synthesis

CCN(CC)CCCC(C)Nc1ccnc2cc(Cl)ccc12 (centres unmarked) [Chloroquine]
effect of chloroquine on inhibition of 5-LOX product formation by ODN 2216 [6]: abrogated by chloroquine | inhibition of CpG-ODN–induced cell activation (TLR9 signaling): known to inhibit CpG-ODN–induced cell activation | effect of chloroquine on CpG-ODN action on 5-LOX products ([2]; 5 µM Chloroquine, B- and C-class CpG-ODNs, Table S1): the effects of B- and C-class CpG-ODNs were not sensitive to chloroquine | Σ 5-LOX metabolites ([2]; Table S1, 2×10^7 PMNLs, 15 min at 37 °C without or with 5 µM Chloroquine, then ODN, after 20 min 0.5×10^9 opsonized S. typhimurium for 15 min, mean ± SEM, three independent experiments): 19.8 ± 2.7 ng/107 PMNLs
